# From patent publication US11078216B2, “Bisaryl amides as NRF2 activators” (GLAXOSMITHKLINE INTELLECTUAL PROPERTY DEVELOPMENT LIMITED, priority 2016, dated 2021)
# Counter-ions that a name gives are not always drawn. Like-named read-outs stand apart in the source and are kept apart here.
# Test system: NRF2 (NQO1 activity as marker for NRF2 activation), BEAS-2B cells
# Assay: BEAS-2B NQO1 MTT Assay
# Assay type: cell-based
# Summary of the method: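 BEAS-2B cells were exposed to compound for 48 h at 37° C, 5% CO2, then lysed. NQO1 activity was measured kinetically by MTT reduction at 570 nm over 30 minutes; EC50 came from 3-parameter fit of Delta OD/min versus log concentration.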
# [1] = Homo sapiens, EC50 of NQO1 specific activity induction, 48 hours incubation, read-out: EC50
# [2] = EC50 of NQO1 specific activity induction, 48 hours incubation, read-out: EC50
SMILES,EC50 [1] [nM],also measured
"CC[C@@H]1CN(Cc2cc([C@H](CC(=O)NCCNC(C)=O)c3ccc4c(nnn4CC)c3C)ccc2C)S(=O)(=O)c2cccnc2O1 [Example 45, (S)—N-(2-Acetamidoethyl)-3-(3-(((R)-4-ethyl-1,1-dioxido-3,4-dihydro-2H-pyrido[2,3-b][1,4,5]oxathiazepin-2-yl)methyl)-4-methylphenyl)-3-(1-ethyl-4-methyl-1H-benzo[d][1,2,3]triazol-5-yl)propanamide]",100 to 1000,"EC50 (Homo sapiens, in some determinations, read-out: EC50 values in some determinations): < 0.17 nM"
"CC[C@@H]1CN(Cc2cc([C@@H](CC(=O)Nc3cccnc3)c3ccc4c(nnn4C)c3C)ccc2C)Cc2ncccc2O1 [Example 46, (R)-3-(1,4-Dimethyl-1H-benzo[d][1,2,3]triazol-5-yl)-3-(3-(((R)-2-ethyl-2,3-dihydropyrido[2,3-f][1,4]oxazepin-4(5H)-yl)methyl)-4-methylphenyl)-N-(pyridin-3-yl)propanamide, Formic Acid Salt]",1000 to 10000,–
"CC[C@@H]1CN(Cc2cc([C@H](CC(=O)Nc3cccnc3)c3ccc4c(nnn4C)c3C)ccc2C)Cc2ncccc2O1 [Example 47, (S)-3-(1,4-Dimethyl-1H-benzo[d][1,2,3]triazol-5-yl)-3-(3-(((R)-2-ethyl-2,3-dihydropyrido[2,3-f][1,4]oxazepin-4(5H)-yl)methyl)-4-methylphenyl)-N-(pyridin-3-yl)propanamide, Formic Acid Salt]",100 to 1000,–
"CCn1cc(CO[C@H](c2ccc(C)c(CN3C[C@@H](C)Cc4ccncc4S3(=O)=O)c2)C(C)(C)C(=O)Nc2cccnc2)nn1 [Example 48, (R)-3-((1-Ethyl-1H-1,2,3-triazol-4-yl)methoxy)-2,2-dimethyl-3-(4-methyl-3-(((S)-4-methyl-1,1-dioxido-4,5-dihydropyrido[4,3-f][1,2]thiazepin-2(3H)-yl)methyl)phenyl)-N-(pyridin-3-yl)propanamide, Formic Acid Salt]",100 to 1000,–
"CCn1cc(CO[C@H](c2ccc(C)c(CN3C[C@@H](C)Cc4ccccc4S3(=O)=O)c2)C(C)(C)C(=O)Nc2cccnc2)nn1 [Example 49, (R)-3-((1-Ethyl-1H-1,2,3-triazol-4-yl)methoxy)-2,2-dimethyl-3-(4-methyl-3-(((S)-4-methyl-1,1-dioxido-4,5-dihydrobenzo[f][1,2]thiazepin-2(3H)-yl)methyl)phenyl)-N-(pyridin-3-yl)propanamide, Formic acid salt]",100 to 1000,–
"CCCn1cc(CO[C@H](c2ccc(C)c(CN3C[C@@H](C)Cc4ncccc4S3(=O)=O)c2)C(C)(C)C(=O)Nc2cccnc2)nn1 [Example 50, (R)-2,2-Dimethyl-3-(4-methyl-3-(((S)-4-methyl-1,1-dioxido-4,5-dihydropyrido[2,3-f][1,2]thiazepin-2(3H)-yl)methyl)phenyl)-3-((1-propyl-1H-1,2,3-triazol-4-yl)methoxy)-N-(pyridin-3-yl)propanamide, Formic acid salt]",100 to 1000,–
"CCCn1cc(CO[C@H](c2ccc(C)c(CN3C[C@@H](C)Cc4ccccc4S3(=O)=O)c2)C(C)(C)C(=O)Nc2cccnc2)nn1 [Example 51, (R)-2,2-Dimethyl-3-(4-methyl-3-(((S)-4-methyl-1,1-dioxido-4,5-dihydrobenzo[f][1,2]thiazepin-2(3H)-yl(methyl)phenyl)-3-((1-propyl-1H-1,2,3-triazol-4-yl)methoxy)-N-(pyridin-3-yl)propanamide, Formic acid salt]",–,EC50 [2]: 100 to 1000 nM
"CCCn1cc(CO[C@H](c2ccc(C)c(CN3C[C@@H](C)Cc4ccc(C(F)(F)F)cc4S3(=O)=O)c2)C(C)(C)C(=O)Nc2cccnc2)nn1 [Example 52, (R)-2,2-Dimethyl-3-(4-methyl-3-(((S)-4-methyl-1,1-dioxido-8-(trifluoromethyl)-4,5-dihydrobenzo[f][1,2]thiazepin-2(3H)-yl)methyl)phenyl)-3-((1-propyl-1H-1,2,3-triazol-4-yl)methoxy)-N-(pyridin-3-yl)propanamide]",1 to 10,–
"CCCn1cc(CO[C@H](c2ccc(C)c(CN3CC(C)(C)Oc4ccccc4S3(=O)=O)c2)C(C)(C)C(=O)Nc2cccnc2)nn1 [Example 53, (R)-3-(3-((4,4-Dimethyl-1,1-dioxido-3,4-dihydro-2H-benzo[b][1,4,5]oxathiazepin-2-yl)methyl)-4-methylphenyl)-2,2-dimethyl-3-((1-propyl-1H-1,2,3-triazol-4-yl)methoxy)-N-(pyridin-3-yl)propanamide]",100 to 1000,–
CCCn1cc(CO[C@H](c2ccc(C)c(CN3C[C@@H](C)Cc4ccncc4S3(=O)=O)c2)C(C)(C)C(=O)Nc2cccnc2)nn1 [Example 54],–,EC50 [2]: 10 to 100 nM
"CCCn1cc(CO[C@H](c2ccc(C)c(CN3C[C@@H](CC)Oc4ccccc4S3(=O)=O)c2)C(C)(C)C(=O)Nc2cccnc2)nn1 [Example 55, (R)-3-(3-(((R)-4-Ethyl-1,1-dioxido-3,4-dihydro-2H-benzo[b][1,4,5]oxathiazepin-2-yl)methyl)-4-methylphenyl)-2,2-dimethyl-3-((1-propyl-1H-1,2,3-triazol-4-yl)methoxy)-N-(pyridin-3-yl)propanamide]",100 to 1000,–
"CCCn1cc(CO[C@H](c2ccc(C)c(CN3C[C@@H](C)Cc4ccc(F)cc4S3(=O)=O)c2)C(C)(C)C(=O)Nc2cccnc2)nn1 [Example 56, (R)-3-(3-(((S)-8-Fluoro-4-methyl-1,1-dioxido-4,5-dihydrobenzo[f][1,2]thiazepin-2(3H)-yl)methyl)-4-methylphenyl)-2,2-dimethyl-3-((1-propyl-1H-1,2,3-triazol-4-yl)methoxy)-N-(pyridin-3-yl)propanamide]",100 to 1000,–
"CC[C@H]1Cc2ccccc2S(=O)(=O)N(Cc2cc([C@H](OCc3cn(CC)nn3)C(C)(C)C(=O)Nc3cccnc3)ccc2C)C1 [Example 57, (S)-3-(3-(((S)-4-Ethyl-1,1-dioxido-4,5-dihydrobenzo[f][1,2]thiazepin-2(3H)-yl)methyl)-4-methylphenyl)-3-((1-ethyl-1H-1,2,3-triazol-4-yl)methoxy)-2,2-dimethyl-N-(pyridin-3-yl)propanamide]",10 to 100,–
"CCn1cc(CO[C@@H](c2ccc(C)c(CN3C[C@@H](C)Cc4ncccc4S3(=O)=O)c2)C(C)(C)C(=O)Nc2cccnc2)nn1 [Example 58, (S)-3-((1-Ethyl-1H-1,2,3-triazol-4-yl)methoxy)-2,2-dimethyl-3-(4-methyl-3-(((S)-4-methyl-1,1-dioxido-4,5-dihydropyrido[2,3-f][1,2]thiazepin-2(3H)-yl)methyl)phenyl)-N-(pyridin-3-yl)propanamide]",100 to 1000,–
"CCn1nnc2c(C)c([C@H](c3ccc(C)c(CN4C[C@H](C)Cc5ccccc5S4(=O)=O)c3)C(C)(C)C(=O)Nc3cccnc3)cc(OC)c21 [Example 59, (S)-3-(1-Ethyl-7-methoxy-4-methyl-1H-benzo[d][1,2,3]triazol-5-yl)-2,2-dimethyl-3-(4-methyl-3-(((R)-4-methyl-1,1-dioxido-4,5-dihydrobenzo[f][1,2]thiazepin-2(3H)-yl)methyl)phenyl)-N-(pyridin-3-yl)propanamide]",100 to 1000,–
"CC[C@@H]1CN(Cc2cc([C@H](c3cc(OC)c4c(nnn4CC)c3C)C(C)(C)C(=O)Nc3cccnc3)ccc2C)S(=O)(=O)c2ccccc2O1 [Example 60, (R)-3-(3-(((R)-4-Ethyl-1,1-dioxido-3,4-dihydro-2H-benzo[b][1,4,5]oxathiazepin-2-yl)methyl)-4-methylphenyl)-3-(1-ethyl-7-methoxy-4-methyl-1H-benzo[d][1,2,3]triazol-5-yl)-2,2-dimethyl-N-(pyridin-3-yl)propanamide]",100 to 1000,–
COc1cc(C(CC(=O)Nc2cccnc2)c2ccc(C)c(CN3C[C@@H](C)Cc4ccc(C(F)(F)F)cc4S3(=O)=O)c2)cc2nnn(C)c12 (stereo partly shown) [Example 61],–,EC50 [2]: 10 to 100 nM
"COc1cc([C@@H](CC(=O)Nc2cccnc2)c2ccc(C)c(CN3C[C@@H](C)Oc4ccccc4S3(=O)=O)c2)cc2nnn(C)c12 [Example 62, (S)-3-(7-Methoxy-1-methyl-1H-benzo[d][1,2,3]triazol-5-yl)-3-(4-methyl-3-(((R)-4-methyl-1,1-dioxido-3,4-dihydro-2H-benzo[b][1,4,5]oxathiazepin-2-yl)methyl)phenyl)-N-(pyridin-3-yl)propanamide]",10 to 100,–
"CCn1nnc2c(C)c([C@H](c3ccc(C)c(CN4C[C@@H](C)Cc5ccc(C(F)(F)F)cc5S4(=O)=O)c3)C(C)(C)C(=O)Nc3cccnc3)cc(OC)c21 [Example 63, (S)-3-(1-Ethyl-7-methoxy-4-methyl-1H-benzo[d][1,2,3]triazol-5-yl)-2,2-dimethyl-3-(4-methyl-3-(((S)-4-methyl-1,1-dioxido-8-(trifluoromethyl)-4,5-dihydrobenzo[f][1,2]thiazepin-2(3H)-yl)methyl)phenyl)-N-(pyridin-3-yl)propanamide]",1 to 10,–
"CC[C@@H]1CN(Cc2cc([C@@H](c3cc(OC)c4c(nnn4CC)c3C)C(C)(C)C(=O)Nc3cccnc3)ccc2C)S(=O)(=O)c2ccccc2O1 [Example 64, (S)-3-(3-(((R)-4-Ethyl-1,1-dioxido-3,4-dihydro-2H-benzo[b][1,4,5]oxathiazepin-2-yl)methyl)-4-methylphenyl)-3-(1-ethyl-7-methoxy-4-methyl-1H-benzo[d][1,2,3]triazol-5-yl)-2,2-dimethyl-N-(pyridin-3-yl)propanamide]",1 to 10,–
"CC[C@@H]1CN(Cc2cc([C@H](CC(=O)Nc3cccnc3)c3cc(OC)c4c(nnn4CC)c3C)ccc2C)S(=O)(=O)c2cccnc2O1 [Example 65, (S)-3-(3-(((R)-4-Ethyl-1,1-dioxido-3,4-dihydro-2H-pyrido[2,3-b][1,4,5]oxathiazepin-2-yl)methyl)-4-methylphenyl)-3-(1-ethyl-7-methoxy-4-methyl-1H-benzo[d][1,2,3]triazol-5-yl)-N-(pyridin-3-yl)propanamide]",10 to 100,–
